Assay results published in ChEMBL document CHEMBL4610066, “Phytol, a Chlorophyll Component, Produces Antihyperalgesic, Anti-inflammatory, and Antiarthritic Effects: Possible NFκB Pathway Involvement and Reduced Levels of the Proinflammatory Cytokines TNF-α and IL-6” (J Nat Prod, 2020).
The source made the active and inactive calls.

How the values were obtained:
Mus musculus [1] = test: Antiinflammatory activity in complete freund's adjuvant-induced albino Swiss mouse model of arthritis assessed as reduction in paw volume at 25 to 50 mg/kg, po pretreated for 1 hr followed by CFA stimulation and measured after 2 hrs by plethysmometric method; type: functional, organism-based
Mus musculus [2] = test: Antiinflammatory activity in complete freund's adjuvant-induced albino Swiss mouse model of arthritis assessed as reduction in paw edema at 50 mg/kg, po pretreated for 1 hr followed by CFA stimulation and measured up to 6 hrs by plethysmometric method relative to control; type: functional; design: scale not given: the % may be the effect or the level left
Mus musculus [3] = test: Antiinflammatory activity in complete freund's adjuvant-induced albino Swiss mouse model of arthritis assessed as reduction in paw edema AUC at 25 mg/kg, po pretreated for 1 hr followed by CFA stimulation and measured up to 6 hrs by plethysmometric method relative to control; type: functional; design: scale not given: the % may be the effect or the level left
Mus musculus [4] = test: Antiinflammatory activity in complete freund's adjuvant-induced albino Swiss mouse model of arthritis assessed as reduction in paw edema AUC at 50 mg/kg, po pretreated for 1 hr followed by CFA stimulation and measured up to 6 hrs by plethysmometric method relative to control; type: functional; design: scale not given: the % may be the effect or the level left
Mus musculus [5] = test: Analgesic activity in formalin-induced albino Swiss mouse model of nociception assessed as reduction in time spent in paw licking during inflammatory phase at 25 to 50 mg/kg, po pretreated for 1 hr followed by formalin stimulation and measured after 15 to 30 mins by formalin test; type: functional, organism-based
Mus musculus [6] = test: Analgesic activity in formalin-induced albino Swiss mouse model of nociception assessed as reduction in time spent in paw licking during neurogenic phase at 50 mg/kg, po pretreated for 1 hr followed by formalin stimulation and measured up to 5 mins by formalin test; type: functional, organism-based
Mus musculus [7] = test: Analgesic activity in albino Swiss mouse assessed as increase in reaction time at 50 mg/kg, po measured after 60 to 240 mins by hot plate test; type: functional, organism-based
Mus musculus [8] = test: Analgesic activity in albino Swiss mouse assessed as increase in reaction time at 25 mg/kg, po measured after 60 to 90 mins by hot plate test; type: functional, organism-based
Mus musculus [9] = test: Analgesic activity in albino Swiss mouse assessed as increase in reaction time at 25 mg/kg, po measured after 120 to 240 mins by hot plate test; type: functional, organism-based
[10] = Neurotoxicity in complete freund's adjuvant-induced albino Swiss mouse model of arthritis assessed as induction of myorelaxant effect by measuring change in muscle force at 50 mg/kg, po pretreated for 1 hr followed by CFA stimulation and measured every other day for 10 days by grip strength meter method; type: toxicity, organism-based; conditions: in vivo, 240 h
[11] = Neurotoxicity in complete freund's adjuvant-induced albino Swiss mouse model of arthritis assessed as motor coordination impairment at 50 mg/kg, po pretreated for 1 hr followed by CFA stimulation and measured up to 240 mins by rotarod test; type: toxicity, organism-based; conditions: in vivo, 4 h
Mus musculus [12] = test: Antiinflammatory activity in complete freund's adjuvant-induced albino Swiss mouse model of arthritis assessed as reduction in joint swelling at 50 mg/kg, po administered once daily for 10 days measured every other day during compound dosing; type: functional, organism-based
Mus musculus [13] = test: Antiinflammatory activity in complete freund's adjuvant-induced albino Swiss mouse model of arthritis assessed as reduction in edema AUC at 50 mg/kg, po administered once daily for 10 days measured every other day during compound dosing relative to control; type: functional; design: scale not given: the % may be the effect or the level left
Mus musculus [14] = test: Antiinflammatory activity in complete freund's adjuvant-induced albino Swiss mouse model of arthritis assessed as reduction in MPO activity in synovial fluid at 50 mg/kg, po pretreated for 1 hr followed by CFA stimulation and measured after 3 days; type: functional, organism-based
Mus musculus [15] = test: Antiinflammatory activity in complete freund's adjuvant-induced albino Swiss mouse model of arthritis assessed as reduction in leukocyte content in synovial fluid at 50 mg/kg, po pretreated for 1 hr followed by CFA stimulation and measured after 3 days; type: functional, organism-based
Mus musculus [16] = test: Antiinflammatory activity in complete freund's adjuvant-induced albino Swiss mouse model of arthritis assessed as reduction in TNFalpha production in synovial fluid at 50 mg/kg, po pretreated for 1 hr followed by CFA stimulation and measured after 3 days; type: functional, organism-based
Mus musculus [17] = test: Antiinflammatory activity in complete freund's adjuvant-induced albino Swiss mouse model of arthritis assessed as reduction in IL6 production in synovial fluid at 50 mg/kg, po pretreated for 1 hr followed by CFA stimulation and measured after 3 days; type: functional, organism-based
Mus musculus [18] = test: Antiinflammatory activity in complete freund's adjuvant-induced albino Swiss mouse model of arthritis assessed as reduction in IL10 production in synovial fluid at 50 mg/kg, po pretreated for 1 hr followed by CFA stimulation and measured after 3 days; type: functional, organism-based
Mus musculus [19] = test: Analgesic activity in complete freund's adjuvant-induced albino Swiss mouse model of hyperalgesia assessed as increase in paw withdrawal threshold at 50 mg/kg, po pretreated for 1 hr followed by CFA stimulation and measured after 7 hrs by analgesimetric method; type: functional, organism-based
Mus musculus [20] = test: Analgesic activity in complete freund's adjuvant-induced albino Swiss mouse model of hyperalgesia assessed as increase in paw withdrawal threshold at 50 mg/kg, po administered daily and measured every other for 10 days and on day 21 and 28; type: functional, organism-based
Mus musculus [21] = test: Antiinflammatory activity in complete freund's adjuvant-induced albino Swiss mouse model of arthritis assessed as reduction in IL6 production in spinal cord at 50 mg/kg, po pretreated for 1 hr followed by CFA stimulation and measured after 3 days; type: functional, organism-based
Mus musculus [22] = test: (§1) Antiinflammatory activity in complete freund's adjuvant-induced albino Swiss mouse model of arthritis assessed as reduction in COX2 production in spinal cord at 50 mg/kg, po pretreated for 1 hr followed by CFA stimulation and measured after 3 days by Western blot analysis; type: functional, organism-based
Mus musculus [23] = test: In vivo inhibition of NFkappaB phosphorylation at ser536 residue in complete freund's adjuvant-induced albino Swiss mouse model of arthritis at 50 mg/kg, po pretreated for 1 hr followed by CFA stimulation and measured after 3 days by Western blot analysis; type: functional, organism-based
Mus musculus [24] = test: Antiinflammatory activity in complete freund's adjuvant-induced albino Swiss mouse model of arthritis assessed as suppression of CFA-induced increase in total NFkappaB level at 50 mg/kg, po pretreated for 1 hr followed by CFA stimulation and measured after 3 days by Western blot analysis; type: functional, organism-based
Mus musculus [25] = test: as §1, with “In vivo inhibition of MAPK pathway” for “Antiinflammatory activity”, “phosphorylated p38 MAPK to total p38 MAPK ratio” for “COX2 production”; type: functional, organism-based
Mus musculus [26] = test: Effect on ERK1/2 signaling in complete freund's adjuvant-induced albino Swiss mouse model of arthritis at 50 mg/kg, po pretreated for 1 hr followed by CFA stimulation and measured after 3 days by Western blot analysis; type: functional, organism-based

Compound: C/C(=C\CO)CCC[C@H](C)CCC[C@H](C)CCCC(C)C [TRANS-PHYTOL]
- Activity (Mus musculus [1]): Active
- Activity (Mus musculus [2]): 45%
- Activity (Mus musculus [3]): 18%
- Activity (Mus musculus [4]): 45%
- Activity (Mus musculus [5]): Active
- Activity (Mus musculus [6]): Active
- Activity (Mus musculus [7]): Active
- Activity (Mus musculus [8]): Active
- Activity (Mus musculus [9]): inactive
- Activity [10]: Non-Toxic
- Activity [11]: Non-Toxic
- Activity (Mus musculus [12]): Active
- Activity (Mus musculus [13]): 46%
- Activity (Mus musculus [14]): Active
- Activity (Mus musculus [15]): Active
- Activity (Mus musculus [16]): Active
- Activity (Mus musculus [17]): Active
- Activity (Mus musculus [18]): inactive
- Activity (Mus musculus [19]): Active
- Activity (Mus musculus [20]): Active
- Activity (Mus musculus [21]): Active
- Activity (Mus musculus [22]): Active
- inhibition (Mus musculus [23]): Active
- Activity (Mus musculus [24]): Active
- inhibition (Mus musculus [25]): Active
- Activity (Mus musculus [26]): inactive
